From patent publication US20220257684A1, “ANTI-COCCIDIAL PHYTOGENIC FORMULATIONS” (priority 2019, published 2022) come the findings set out here.

Values joined by “and” are separate entries in the source; they are usually repeats but may differ in a detail not shown here. Identical values can stand only once. Marks after values point to notes of the source that are not given here.

Test [1] deals with E. tenella challenged chickens. In words: Survival rate in E. tenella challenged chickens. Particulars: ET-infected chickens (1×10^4 oocysts), substance in feed; infected standard feed 60%; FIG. 4B. Format: in vivo, chicken. The text has this:
(§1) FIG. 4A is a schematic drawing showing the experimental protocol used in in vivo studies. Birds in untreated groups had daily access to standard diet, and birds in treated groups were fed with diet containing salinomycin, A. indica (AI), B. pilosa (BP), or a mixture of AI plus BP. On day 7, chickens were challenged with PBS or E. tenella (ET) sporulated oocysts (1×10^4) by gavage. The survival rate in each group was monitored from day 1 to 7 post infection.
FIG. 4B is a graph showing survival rate in each group of FIG. 4A. Chickens were divided into eight groups: Group 1 (G1), uninfected and fed with a standard diet; Group 2 (G2), ET-infected and fed with a standard diet; Group 3 (G3) to Group 8 (G8), ET-infected and fed with diet containing salinomycin, BP alone, a combination of BP and different dosages of AI, or AI alone without BP as indicated. Each group has 15 chicks and P values are indicated.
Birds, diets, and experimental design. One-day-old Lohmann broiler chicks hatched at Taichung Hatchery (Taiwan) were wing-banded upon arrival, weighed, and randomly placed in Petersime starter brooder units. At 1 to 2 days post-hatching, the birds were given free access to water and diets. […] Growth performance (body weight and feed conversion), pathology (bloody droppings and gut morphometry) and survival rate were measured and examined (FIG. 4A). […]

Test [2] relates to E. tenella challenged chickens. The experiment in a line: Feed conversion rate in E. tenella challenged chickens. It is filed as in vivo, chicken. Particulars: BP alone 0.01%, AI alone 0.01% in feed.
Text: as §1
(§2) Birds, diets, and experimental design. One-day-old Lohmann broiler chicks hatched at Taichung Hatchery (Taiwan) were wing-banded upon arrival, weighed, and randomly placed in Petersime starter brooder units. At 1 to 2 days post-hatching, the birds were given free access to water and diets. The diets were formulated by mixing a base diet with a carrier alone (control diet) or with an indicated dose of a phytogenic formulation comprising Artemisia indica (AI), B. pilosa (BP), or both AI and BP. After grouping, birds were tube-fed with Eimeria oocysts to get infection. Growth performance (body weight and feed conversion), pathology (bloody droppings and gut morphometry) and survival rate were measured and examined (FIG. 4A). All birds were maintained in the institutional animal facility and handled according to institutional guidelines. […]

Test [3] has as its system E. tenella challenged chickens. The experiment in a line: Microscopic cecal lesion scores and histology in E. tenella challenged chickens. It is filed as in vivo, chicken. The settings on record: ceca, Day 7 post ET infection.
Text: as §1
(§3) Birds, diets, and experimental design. One-day-old Lohmann broiler chicks hatched at Taichung Hatchery (Taiwan) were wing-banded upon arrival, weighed, and randomly placed in Petersime starter brooder units. At 1 to 2 days post-hatching, the birds were given free access to water and diets. The diets were formulated by mixing a base diet with a carrier alone (control diet) or with an indicated dose of a phytogenic formulation comprising Artemisia indica (AI), B. pilosa (BP), or both AI and BP. After grouping, birds were tube-fed with Eimeria oocysts to get infection. Growth performance (body weight and feed conversion), pathology (bloody droppings and gut morphometry) and survival rate were measured and examined (FIG. 4A). All birds were maintained in the institutional animal facility and handled according to institutional guidelines.
Immunohistochemical staining. Multiple parallel sections of the ceca from chickens that had access to control diet and the diet containing Artemisia indica (AI), B. pilosa (BP), or both for 14 days were flash-frozen. The sections were stained with H&E or anti-insulin antibody, with development of diaminobenzidine tetrahydrochloride, followed by image analysis (Yang et al. Research in Veterinary Science (2015) 98:74-81).
(§4) The anti-coccidial effects of the extracts of A. indica (AI), B. pilosa (BP) and a combination of both extracts were examined in vivo. Chickens were randomly divided into 8 groups and given daily (Day 1 to Day 14) access to standard chicken feed (Groups 1 and 2), feed containing salinomycin (Group 3), or feed containing the plant extracts (Groups 4 to 8) at the indicated doses (FIG. 4A).
Mucosal damages caused by coccidia were examined under microscope and scored as microscopic cecal lesions based on the distribution and severity of the mucosal destructions in the chicken cecum.

Test [4] deals with E. tenella challenged chickens. In words: Body weight gain in E. tenella challenged chickens. The settings on record: BP alone 0.01%, AI alone 0.01%. It is filed as in vivo, chicken.
Text: as §1
as §2, with “4A).” for “4A). All birds were maintained in the institutional animal facility and handled according to institutional guidelines.”
Body weights (BW) of the chickens from FIG. 4B were monitored on Days 1, 7 and 14, and body-weight (BW) gains were calculated on Days 7 and 14. […]

The subject of test [5] is E. tenella (ET) sporozoites invading Madin-Darby bovine kidney (MDBK) cells. The experiment in a line: Invasion assay (sporozoite entry into MDBK cells). It is filed as cell-based, Eimeria tenella. The settings on record: at 50 μg/ml; untreated invasion 20% of the cells. The method, then: FIGS. 3A-C are photomicrographs (left panels) and bar graphs (right panels) illustrating the in vitro effects of formulations composed of A. indica (AI), B. pilosa (BP), or a mixture of A. indica (AI) and B. pilosa (BP) on E. tenella (ET) sporozoite invasion. Madin-Darby bovine kidney (MDBK) cells were incubated with salinomycin (Sal), or plant extracts containing A. indica (AI)(3A), B. pilosa (BP) (3B) or a mixture of AI and BP (3C) at indicated dosages for 0.5 h. The sporozoites were added to the MDBK cells for […]. After washing, the MDBK cells were stained with hematoxylin and eosin (H&E) and counted. The invasion percentage (%) was plotted into bar graphs. The inset represents a magnified area. Scale bars of microscope in 100× and 40× (inset) are 10 μm and 50 μm (inset), respectively. Arrowhead indicates the MDBK cells infected with sporozoites.
Invasion assay. Madin-Darby bovine kidney (MDBK, ATCC® CCL-22) cells, grown in DMEM containing fetal bovine serum (10%) and supplements, were seeded onto glass cover slips in 24 wells at 2×10^5 cells/well. One day later, the cells were pre-incubated with DMEM medium containing salinomycin, or plant extracts and phytochemicals at doses indicated for 0.5 h. Fresh sporozoites (2×10^5) were added to the cells for additional 4 h. […]

The test system of test [6] is E. tenella challenged chickens. The experiment in a line: Bloody stools in E. tenella challenged chickens. Particulars: Day 7 post ET infection, versus infected unmedicated birds (100%), FIG. 5. Format: in vivo, chicken.
Text: as §1
FIG. 5 is a bar graph showing percentage of bloody stools in each chicken group of FIG. 4A-B on Day 7 post E. tenella (ET) infection. Chicken stools were classified on Day 1 to Day 7 post infection.
as §2, with “4A).” for “4A). All birds were maintained in the institutional animal facility and handled according to institutional guidelines.”

Test [7] has as its system E. tenella challenged chickens. The experiment in a line: Fecal oocyst excretion in E. tenella challenged chickens. Format: in vivo, chicken.
Text: as §1, §3, §4
Excretion of Eimeria oocysts in the feces of ET-infected chickens is an indicator of Eimeria multiplication. The oocysts per gram feces (OPG) in the chickens from FIG. 4B were counted from Day 3 to Day 7 post ET infection. No oocysts in the feces were detected in the uninfected unmedicated control group (Group 1, Table 3). Fecal oocyst excretion was first detected on Day 4 post infection in all the ET-infected groups and reached its peak on Day 7 post infection (Group 2).

Test [8] deals with E. tenella challenged chickens. The experiment in a line: Gross cecal lesion scores in E. tenella challenged chickens. The settings on record: ceca, Day 7 post ET infection. Format: in vivo, chicken.
Text: as §1, §3, §4
Gross lesions in the ceca of the chickens from FIG. 4B were examined and scored. The uninfected unmedicated control chickens (Group 1, Table 4) had no lesions in the ceca (score=0). The ET infection caused more gross cecal lesions in the gut of unmedicated chickens, as evidenced by an average lesion score of 4 (Group 2) on Day 7 post infection.

The test system of test [9] is E. tenella oocysts. The experiment in a line: Sporulation assay. Particulars: positive control, FIG. 2A. It is filed as cell-based, Eimeria tenella. The procedure:
FIGS. 2A-C are photomicrographs (upper panels) and bar graphs (lower panels) illustrating the in vitro effects of formulations comprising A. indica (AI), B. pilosa (BP), or a mixture of A. indica (AI) and B. pilosa (BP) on viability of E. tenella (ET) oocysts and its sporulation. The oocysts were pre-treated with PBS, sodium dithionite (SD), an inhibitor of oocyst sporulation or plant extracts containing AI (2A), BP (2B), or both AI and BP (2C) at the indicated dosages for 48 h. The oocysts were induced to sporulate by potassium dichromate for 2 days. The percentage of sporulating oocysts was counted using a microscope ([…]) and plotted into bar graphs (right panel); scale bar is 200 μm. Arrow indicates sporulating oocysts whilst arrowhead indicates non-sporulating oocysts.
Sporulation assay. The E tenella oocysts were pre-treated with PBS, boiling (100° C. for 30 min) or plant extracts at indicated doses for 48 h. The oocysts were incubated with 2% potassium dichromate for 2 days before sporulation. The percentage of sporulating oocysts (%) was counted.
The effects of the plant extracts on sporulation of E. ET oocysts were tested. Seventy percent of ET oocysts were able to sporulate in the in vitro culture (PBS, FIG. 2A). […]

`CC[C@@H](C(=O)[C@@H](C)[C@@H](O)[C@H](C)[C@@H]1O[C@@H]([C@@H](CC)C(=O)O)CC[C@@H]1C)[C@H]1O[C@]2(C=C[C@@H](O)[C@]3(CC[C@@](C)([C@H]4CC[C@](O)(CC)[C@H](C)O4)O3)O2)[C@H](C)C[C@@H]1C` [salinomycin, Salinomycin]: the survival rate in test [1] is given as 100%. In addition, the “FCR Day 7-1” value in test [2] (feed intake (Kg) divided by body weight gain on day 7, prior to ET infection) worked out at 2.42 ± 0.08. Besides, the “FCR Day 14-1” value in [2] (feed intake (Kg) divided by body weight gain on day 14, ET-infected) was 3.05 and 3.05 ± 0.13. In test [3], the “Microscopic lesion score 0 (fraction)” value was 0/15, the “Microscopic lesion score 1 (fraction)” value is reported as 0/15, the “Microscopic lesion score 3 (fraction)” value was 0/15 and the “Microscopic lesion score 5 (fraction)” value is 0/15. For the same molecule, in test [3], the “Microscopic lesion score 7 (fraction)” value was 2/15. The “Microscopic lesion score, Average” value in [3] (infected unmedicated 7.20, BP alone 0.01%, AI alone 0.01% in feed) was 6.29 and 6.29 ± 0.13. In addition, the “BWG (g) Day 7-1” value in [4] (body weight Day 7 minus Day 1, prior to ET infection, substance in feed from Day 1) is given as 27.64 ± 1.16 g. Moreover, the “BWG (g) Day 14-1” value in test [4] (body weight Day 14 minus Day 1, ET oocysts (1×10^4) on Day 7, substance in feed Day 1 to 14) was 56.33 g and 56.33 ± 3.15 g. In addition, the “ET sporozoite invasion (invasion percentage of MDBK cells)” value in test [5] is listed as 10%. Besides, the “percentage of bloody stools” value in test [6] is “significantly decrease in the percentage of bloody stools”. For the same molecule, the “oocysts per gram of feces versus infected unmedicated birds (Group 2), result in words” value in test [7] (Day 3 to Day 7 post ET infection) was “slightly less oocysts per gram of feces”. Besides, the “Ln(OPG ± 1), 3 days post-infection” value in [7] (oocysts per gram feces, Day 3 post ET infection, BP alone 0.01%, AI alone 0.01% in feed) was 0 ± 0. In addition, in test [7] (oocysts per gram feces, Day 4 post ET infection, BP alone 0.01%, AI alone 0.01% in feed), the “Ln(OPG ± 1), 4 days post-infection” value is 3.45 ± 0.16^a,b. Besides, in test [7] (oocysts per gram feces, Day 5 post ET infection, BP alone 0.01%, AI alone 0.01% in feed), the “Ln(OPG ± 1), 5 days post-infection” value is recorded as 4.49 ± 0.02^a,b. The “Ln(OPG ± 1), 6 days post-infection” value in [7] (oocysts per gram feces, Day 6 post ET infection, BP alone 0.01%, AI alone 0.01% in feed) is recorded as 4.89 ± 0.01^a,b. Moreover, the “Ln(OPG ± 1), 7 days post-infection” value in test [7] (oocysts per gram feces, Day 7 post ET infection, BP alone 0.01%, AI alone 0.01% in feed) is 5.33 ± 0.01^a,b. In test [8] (chickens in grade / n), the “Gross lesion score 0: number of chickens” value is listed as 0/15, the “Gross lesion score 1: number of chickens” value is recorded as 0/15, the “Gross lesion score 2: number of chickens” value was 0/15 and the “Gross lesion score 3: number of chickens” value is given as 1/15. Moreover, the “Gross lesion score 4: number of chickens” value in test [8] (chickens in grade / n) is 6/15. Also, the “Gross lesion score, Average” value in test [8] (infected unmedicated 4.00, BP alone 0.01%, AI alone 0.01% in feed) is 3.86 and 3.86 ± 0.10.

On to `O=S([O-])S(=O)[O-].[Na+].[Na+]` [sodium dithionite], for which the “reduction of sporulation of ET oocysts as compared to the PBS treatment group” value in test [9] was 40%.
